# Like-named read-outs stand apart in the source and are kept apart here.
# Assays:
# [1] = test system: spontaneously hypertensive rats; assay: Blood pressure lowering in spontaneously hypertensive rats; assay type: in vivo, rat
# Source text: Pharmacol. 37, 263-265 (1984). Without further elaboration,it is believed that one skilled in the art can, using the preceding description, practice the present invention to its fullest extent.
# dopamine receptors = conditions: background; cited from earlier work
# [2] = Bioavailability from ED50 values after s.c. and p.o. administration; assay type: in vivo, rat; conditions: comparing ED50 values, reserpine-pretreated rats
# Source text: ^f "Bioch" denotes the bioavailability as estimated by comparing the
# ED50 values after s.c. and p.o. administration (reserpinepretreated rats)
# [3] = test system: Reserpine Pretreated Rats; assay: Gross behavior (antagonism of reserpine-induced neuroleptic syndrome); assay type: in vivo, rat
# Source text: Antagonism of the reserpine-induced "neuroleptic syndrome" in the rat (gross behavior)
# Depletion of the monoamine stores with reserpine brings about a "neuroleptic syndrome" characterized by hypomotility, catalepsy, muscle rigidity, hunch-backed posture as well as a number of other central and peripheral signs of monoamine depletion. The whole or parts of this syndrome can be reversed by the administration of drugs that stimulate dopamine or 5-HT receptors directly or indirectly.
# Stimulation of the dopamine receptors, with apomorphine for example, gives rise to both locomotion and stereotyped behavior such as sniffing, gnawing and jumping. On the other hand, stimulation of the 5-HT receptors, with 5-hydroxytryptophane (5-HTP) combined with MAO-inhibitors for example, gives rise to a very different behavior.
# (§1) Rats (150-300 g) pretreated with reserpine (5 mg/kg, 18 hours before) were given the test compounds. Gross behavioral observations (changes in motility, hindleg abduction, etc.) were made. Subsequent administration of NSD 1015, decapitation, brain dissection (corpora striata, the limbic forebrain and the remaining hemispheral portions (mainly cortex) or rat brain), homogenization, centrifugation, ion-exchange chromatography and spectrofluorimetric measurements (all as described in detail by Wikstrom, et al., J. Med. Chem., 21, 864-867, 1978 and reference cited therein), or by HPLC/EC, gave the actual dopamine and 5-HTP levels. Several doses (n-4-6) were tested for each compound and brain area. The dose of a compound giving 50% of the maximal reduction of the %-HTP level in the rat brain part was then estimated.
# ^d The gross behavior of the animals was observed during the course o
# the experiments. The 5HT behavioral syndrome consisted of flat body
# psoture, abducted hind and forelegs, forepaw treading (pianoplaying) and […]
# 5-HT receptor = assay: In-vivo tryptophan hydroxylation (5-HTP formation) in limbic forebrain of reserpine-pretreated rats after NSD 1015; set-up: species or system rat; conditions: limbic brain part
# Procedure: In-vivo determination of rat brain tyrosine and tryptophan hydroxylation after reserpine pretreatment (biochemically monitored dopamine and 5-HT receptor activity)
# The compounds under evaluation were tested biochemically for central dopamine and 5-HT receptor (pre- and/or postsynaptic) stimulating activity. The concept of this biochemical screening method is that a dopamine or 5-HT-receptor agonist will stimulate the receptor and through regulatory feedback systems effect a decline in tyrosine or tryptophan hydroxylating activity, respectively, and a subsequent reduction in the synthesis rate for dopamine and 5-HT in the presynaptic neuron. Dopamine and 5-HTP formation, as determined after in-vivo inhibition of the aromatic L-amino acid decarboxylase with NSD 1015 (3-hydroxybenzylhydrazine hydrochloride) are taken as indirect measures of dopamine and 5-HT-synthesis rates, respectively.
# as §1
# ^b Dose giving a half maximal decrease of 5HTP formation in the rat
# limbic brain part. The values were estimated from doseresponse curves
# comprising 4 to 6 levels (n = 4).
# Control level was: 191 ng/g.
# 5-HT1A receptor = molecular target: T1, 5-HT1A receptor (Homo sapiens, UniProt P08908); assay: In vitro binding, 5-HT1A
# T1 sequence (P08908 1-422): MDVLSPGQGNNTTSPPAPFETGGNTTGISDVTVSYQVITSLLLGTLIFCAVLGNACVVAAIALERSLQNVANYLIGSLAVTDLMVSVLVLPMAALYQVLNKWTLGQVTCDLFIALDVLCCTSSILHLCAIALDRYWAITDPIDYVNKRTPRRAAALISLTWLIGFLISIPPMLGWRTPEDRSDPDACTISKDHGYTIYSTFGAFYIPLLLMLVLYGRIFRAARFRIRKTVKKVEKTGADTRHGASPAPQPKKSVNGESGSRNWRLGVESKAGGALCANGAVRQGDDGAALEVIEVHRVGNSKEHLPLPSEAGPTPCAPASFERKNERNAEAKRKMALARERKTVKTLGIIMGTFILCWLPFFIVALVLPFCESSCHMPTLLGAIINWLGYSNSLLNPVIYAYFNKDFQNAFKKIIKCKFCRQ
# Source text: The compounds of this invention where --OR1 is in the 8 position in the aromatic ring are very selective 5-HT1A receptor agonists having little or no dopaminergic activity. […] These compounds are particularly effective anxiolytic and antidepressant agents. Other uses for these compounds include panic attacks, obsessive-compulsive disturbances, and senile dementia particularly the emotional disturbances seen in dementia disorders. In addition, central 5-HT receptor activation are believed to be involved in mediating sexual behavior. These compounds would be useful to stimulate sexual activity and to alleviate impotence.
# [4] = Bioavailability from plasma drug levels (GC/MS) after s.c. and p.o. administration; assay type: in vivo, rat; conditions: plasma drug levels by GC/MS after s.c. and p.o.; nonpretreated rats
# Source text: FIGS. 1 and 2). "Plasma" denotes the availability as estimated by
# comparing plasma drug levels (measured by means of GC/MS) after s.c. and
# p.o. administration of test drugs in nonpretreated rats.
# [5] = Bioavailability from decrease in rectal temperature after s.c. and p.o. administration; assay type: in vivo, rat; conditions: rectal temperature decrease after s.c. (25.0 μmol/kg) and p.o. (100.0 μmol/kg); nonpretreated rats
# Source text: "Temp" denotes the bioavailabilty as estimated by comparing the decrease
# in rectal temperature after s.c. (25.0 μmol/kg) and p.o. (100.0
# μmol/kg) administration of the test drugs in nonpretreated rats (c.f.,
# FIGS. 1 and 2). "Plasma" denotes the availability as estimated by […]
# dopamine D2 receptor = dopamine D2 receptor (Homo sapiens, UniProt P14416); assay: In vitro binding, dopamine D2
# Procedure: ^e The affinity of the test compounds for dopamine D2 receptor sites
# was determined by calculating the IC50 value (see text).
# Chain of dopamine D2 receptor (P14416 whole entry, species assumed): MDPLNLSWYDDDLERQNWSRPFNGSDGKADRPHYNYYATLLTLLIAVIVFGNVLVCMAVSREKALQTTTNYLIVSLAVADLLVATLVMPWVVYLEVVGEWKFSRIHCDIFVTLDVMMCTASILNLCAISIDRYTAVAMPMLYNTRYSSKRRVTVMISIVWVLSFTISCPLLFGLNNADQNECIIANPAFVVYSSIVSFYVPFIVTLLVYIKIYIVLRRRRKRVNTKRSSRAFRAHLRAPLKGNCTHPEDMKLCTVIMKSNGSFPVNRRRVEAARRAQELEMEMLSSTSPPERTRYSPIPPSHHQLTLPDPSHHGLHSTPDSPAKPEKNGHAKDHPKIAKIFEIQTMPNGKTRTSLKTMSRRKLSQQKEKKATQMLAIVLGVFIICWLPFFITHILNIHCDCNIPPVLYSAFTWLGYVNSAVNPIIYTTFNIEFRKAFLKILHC
molecule,measurement,setting,value
(-)-R-8-Methoxy-2-(di-cyclopropylmethylamino)tetralin [Example 13],blood pressure lowering effects,[1],demonstrate blood pressure lowering effects
"COc1cccc2c1CC(N(CCc1cccs1)CC1CC1)CC2 (stereo not shown) [Example 17, 8-Methoxy-2-(N-cyclopropylmethyl-N-(2-thiophenethyl)-amino)tetralin]",blood pressure lowering effects,[1],demonstrate blood pressure lowering effects
O=C1CC2(CCCC2)CC(=O)N1CCCCN1CCN(c2ncccn2)CC1 [Buspirone],dopamine receptor antagonism / agonism,dopamine receptors,antagonizes dopamine receptors at the same dose it stimulates 5-HT1A receptors
CC1(C)CC(=O)N(CCCCN2CCN(c3ncccn3)CC2)C(=O)C1 [Gepirone],dopamine receptor antagonism / agonism,dopamine receptors,has dopamine antagonist properties
"CCCN(CC1CC1)C1CCc2cccc(OC)c2C1 (stereo not shown) [Example 8-OMe-CPMAT, 8Methoxy-2-(N-cyclopropylmethyl-N-n-propylamino)tetralin]",Bioavailability bioch po/sc,[2],12%
same,Behavior,[3]; po,5-HT syndr
same,Behavior,[3]; sc,5-HT syndr
same,ED50 5-HTP limb,5-HT receptor; po,3.3 µmol/kg
same,ED50 5-HTP limb,5-HT receptor; sc,0.40 µmol/kg
same,IC50,"5-HT1A receptor; in vitro binding, read-out: In vitro binding 5-HT1A IC50",0.006 µM
"COc1cccc2c1C[C@H](N(CC1CC1)CC1CC1)CC2 [Example 12, (+)-R-8-Methoxy-2-(di-cyclopropyl-methylamino)tetralin]",blood pressure lowering effects,[1],demonstrate blood pressure lowering effects
"COc1cccc2c1CC(N(CC1CC1)CC1CC1)CC2 (stereo not shown) [Example 8-OMe-DCPMAT, 8Methoxy-2-(N,N-dicyclopropylmethylamino)tetralin]",Bioavailability plasma po/sc,[4],6-16%
same,Bioavailability bioch po/sc,[2],60%
same,Bioavailability temp po/sc,[5],36%
same,Behavior,[3]; po,5-HT syndr
same,Behavior,[3]; sc,5-HT syndr
same,ED50 5-HTP limb,5-HT receptor; po,2.0 µmol/kg
same,ED50 5-HTP limb,5-HT receptor; sc,1.2 µmol/kg
same,IC50,dopamine D2 receptor,40 µM
same,IC50,5-HT1A receptor,0.021 µM
same,IC50 ratio of dopamine D2 to 5HT1A in vitro binding (selectivity),"5-HT1A receptor; in vitro binding, Table 1 data",demonstrates the selectivity for the 5-HT1A receptor
CN1CCc2cccc3c2[C@H]1Cc1ccc(O)c(O)c1-3 [apomorphine],dopamine receptor antagonism / agonism,dopamine receptors,able to activate the dopamine autoreceptors as well as the post synaptic dopamine receptors
